Laboratory results published in patent US4058659A, “6,8-Disubstituted purine derivatives of 9-β-D-ribofuranosyl 3',5'-cyclic phosphate” (ICN Pharmaceuticals, Inc., priority 1975, dated 1977).
Counter-ions that a name gives are not always drawn. Values belong to the molecule of their own block, whether it stands above or below them.

Assays:
phosphodiesterase = assay: Phosphodiesterase inhibition; format: biochemical
protein kinase = assay: Protein kinase activation relative to cyclic AMP; format: biochemical; conditions: compared with cyclic AMP
[1] = system: isolated cat papillary muscle; assay: Positive inotropic effect: % change in contractile force in isolated cat papillary muscle; conditions: for activation at 1 µg/mL: 1.0 μg/ml; for activation at 3.1 µg/mL: 3.1 μg/ml; for activation at 10 µg/mL: 10.0 μg/ml; for activation at 31 µg/mL: 31.0 μg/ml; for activation at 100 µg/mL: 100 μg/ml; for activation at 310 µg/mL: 310 μg/ml; for positive inotropic effect: statement in words, isolated cat papillary muscle
adenyl cyclase = assay: Inhibition of adenyl cyclase function; format: biochemical
[2] = Anti-inflammatory activity in in vivo animal testing
[3] = Antihypertensive properties in in vivo animal testing
[4] = Felis catus, read-out: % change in Contractile Force (CF)

inhibition of phosphodiesterase (phosphodiesterase): inhibit phosphodiesterase markedly
Structure (SMILES): O=P1(O)OC[C@H]2O[C@@H](n3c(SCc4ccccc4)nc4c(N5CCCC5)ncnc43)[C@H](O)[C@@H]2O1 [Compound 18, 8-(Benzylthio)-6-pyrrolidino-9-β-D-ribofuranosylpurine 3',5'-Cyclic Phosphate]

inhibition of phosphodiesterase (phosphodiesterase): inhibit phosphodiesterase markedly
Structure (SMILES): O=P1(O)OC[C@H]2O[C@@H](n3c(Br)nc4c(NCc5ccccc5)ncnc43)[C@H](O)[C@@H]2O1 [Compound 42, 6-(Benzylamino)-8-bromo-9-β-D-ribofuranosylpurine 3',5'-Cyclic Phosphate]

protein kinase activation (protein kinase): superior to cyclic AMP
Structure (SMILES): CCCCNc1ncnc2c1nc(SC)n2[C@@H]1O[C@@H]2COP(=O)(O)O[C@H]2[C@H]1O [Compound 30, 6-n-Butylamino-8-(methylthio)-9-β-D-ribofuranosylpurine 3',5'-Cyclic Phosphate]

inhibition of phosphodiesterase (phosphodiesterase): inhibit phosphodiesterase markedly
Structure (SMILES): CCCCNc1ncnc2c1nc(SCc1ccccc1)n2[C@@H]1O[C@@H]2COP(=O)(O)O[C@H]2[C@H]1O [Compound 17, 8-(Benzylthio)-6-(n-butylamino)-9-β-D-ribofuranosylpurine 3',5'-CyclicPhosphate]
activation at 1 µg/mL [1, 4]: 7.5%
activation at 3.1 µg/mL [1, 4]: 10%
activation at 10 µg/mL [1, 4]: 19.3%
activation at 31 µg/mL [1, 4]: 24%
activation at 100 µg/mL [1, 4]: 30%
activation at 310 µg/mL [1, 4]: 39%
positive inotropic effect [1]: exhibit positive inotropic effect

inhibition of phosphodiesterase (phosphodiesterase): inhibit phosphodiesterase markedly
Structure (SMILES): CCN(CC)c1ncnc2c1nc(SCc1ccccc1)n2[C@@H]1O[C@@H]2COP(=O)(O)O[C@H]2[C@H]1O [Compound 15, 8-(Benzylthio)-6-(diethylamino)-9-β-D-ribofuranosylpurine 3',5'-CyclicPhosphate]

inhibition of phosphodiesterase (phosphodiesterase): inhibit phosphodiesterase markedly
Structure (SMILES): CSc1nc2c(NCc3ccccc3)ncnc2n1[C@@H]1O[C@@H]2COP(=O)(O)O[C@H]2[C@H]1O [Compound 43, 6-(Benzylamino)-8-(methylthio)-9-β-D-ribofuranosylpurine 3',5'-Cyclic Phosphate]

inhibition of phosphodiesterase (phosphodiesterase): inhibit phosphodiesterase markedly
Structure (SMILES): O=P1(O)OC[C@H]2O[C@@H](n3c(SCc4ccccc4)nc4c(NCc5ccccc5)ncnc43)[C@H](O)[C@@H]2O1 [Compound 44, 6-(Benzylamino)-8-(benzylthio)-9-β-D-ribofuranosylpurine 3',5'-Cyclic Phosphate]

inhibition of phosphodiesterase (phosphodiesterase): inhibit phosphodiesterase markedly
Structure (SMILES): CCNc1ncnc2c1nc(SCc1ccccc1)n2[C@@H]1O[C@@H]2COP(=O)(O)O[C@H]2[C@H]1O [Compound 19, 8-(Benzylthio)-6-(ethylamino)-9-β-D-ribofuranosylpurine 3',5'-Cyclic Phosphate]
activation at 1 µg/mL [1, 4]: 9%
activation at 3.1 µg/mL [1, 4]: 11%
activation at 10 µg/mL [1, 4]: 17%
activation at 31 µg/mL [1, 4]: 28%
activation at 100 µg/mL [1, 4]: 45%
activation at 310 µg/mL [1, 4]: 88%
positive inotropic effect [1]: exhibit positive inotropic effect

Further lines, the molecule ahead of its results:

Structure (SMILES): CN(C)c1nc(N)nc2c1nc(Cl)n2[C@@H]1O[C@@H]2COP(=O)(O)O[C@H]2[C@H]1O [Compound 56, 2-Amino-8-chloro-6-dimethylamino-9-β-D-ribofuranosylpurine 3',5'-Cyclic Phosphate]
inhibition of phosphodiesterase (phosphodiesterase): inhibit phosphodiesterase markedly

Structure (SMILES): Nc1nc2c(Cl)ncnc2n1[C@@H]1O[C@@H]2COP(=O)(O)O[C@H]2[C@H]1O [Compound 4, 8-Amino-6-chloro-9-β-D-ribofuranosylpurine 3',5'-Cyclic Phosphate]
protein kinase activation (protein kinase): superior to cyclic AMP
inhibition of phosphodiesterase (phosphodiesterase): inhibit phosphodiesterase markedly

Structure (SMILES): CCCCNc1ncnc2c1nc(Sc1ccc(Cl)cc1)n2[C@@H]1O[C@@H]2COP(=O)(O)O[C@H]2[C@H]1O [Compound 36, 6-n-Butylamino-8-(p-chlorophenylthio)-9-β-D-ribofuranosylpurine 3',5'-Cyclic Phosphate]
activation at 1 µg/mL [1, 4]: 9.8%
activation at 3.1 µg/mL [1, 4]: 15%
activation at 10 µg/mL [1, 4]: 52.7%
activation at 31 µg/mL [1, 4]: 62.3%
activation at 100 µg/mL [1, 4]: 29.4%
activation at 310 µg/mL [1, 4]: 101%
positive inotropic effect [1]: exhibit positive inotropic effect

Structure (SMILES): O=P1(O)OC[C@H]2O[C@@H](n3c(Sc4ccc(Cl)cc4)nc4c(Nc5ccccc5)ncnc43)[C@H](O)[C@@H]2O1 [Compound 37, 6-Anilino-8-(p-chlorophenylthio)-9-β-D-ribofuranosylpurine 3',5'-Cylic Phosphate]
activation at 1 µg/mL [1, 4]: 2%
activation at 3.1 µg/mL [1, 4]: 10.3%
activation at 10 µg/mL [1, 4]: 31.3%
activation at 31 µg/mL [1, 4]: 50.2%
activation at 100 µg/mL [1, 4]: 74.5%
activation at 310 µg/mL [1, 4]: 82.3%
positive inotropic effect [1]: exhibit positive inotropic effect

Structure (SMILES): CC(=O)O[C@@H]1[C@@H]2OP(=O)(O)OC[C@H]2O[C@H]1n1c(Cl)nc2c(Cl)ncnc21 [Compound 2a, 2'-O-Acetyl-6,8-dichloro-9-β-D-ribofuranosylpurine 3',5'-Cyclic Phosphate Sodium Salt]
protein kinase activation (protein kinase): superior to cyclic AMP
inhibition of adenyl cyclase function (adenyl cyclase): inhibit adenyl cyclase function

Structure (SMILES): O=P1(O)OC[C@H]2O[C@@H](n3c(Sc4ccc(Cl)cc4)nc4c(N5CCCCC5)ncnc43)[C@H](O)[C@@H]2O1 [Compound 34, 8-(p-Chlorophenylthio)-6-piperidino-9-β-D-ribofuranosylpurine 3',5'-Cyclic Phosphate]
inhibition of phosphodiesterase (phosphodiesterase): inhibit phosphodiesterase markedly

Structure (SMILES): CCN(CC)c1nc2c(Cl)ncnc2n1[C@@H]1O[C@@H]2COP(=O)(O)O[C@H]2[C@H]1O [Compound 10, 6-Chloro-8-(diethylamino)-9-β-D-ribofuranosylpurine 3',5'-Cyclic Phosphate]
inhibition of phosphodiesterase (phosphodiesterase): inhibit phosphodiesterase markedly

Structure (SMILES): CC(=O)O[C@@H]1[C@@H]2OP(=O)(O)OC[C@H]2O[C@H]1n1c(SCc2ccccc2)nc2c(Cl)ncnc21 [Compound 13, 2'-o-acetyl-8-(benzylthio)-6-chloro-9-β-D-ribofuranosylpurine 3',5'-Cyclic Phosphate Sodium Salt]
inhibition of phosphodiesterase (phosphodiesterase): inhibit phosphodiesterase markedly

Structure (SMILES): O=P1(O)OC[C@H]2O[C@@H](n3c(SCc4ccccc4)nc4c(SCc5ccccc5)ncnc43)[C@H](O)[C@@H]2O1 [Compound 14, 6,8-Bis-(benzylthio)-9-D-ribofuranosylpurine 3',5'-Cyclic Phosphate Sodium Salt]
inhibition of phosphodiesterase (phosphodiesterase): inhibit phosphodiesterase markedly

Structure (SMILES): O=P1(O)OC[C@H]2O[C@@H](n3c(SCc4ccccc4)nc4c(N5CCCCC5)ncnc43)[C@H](O)[C@@H]2O1 [Compound 16, 8-(Benzylthio)-6-piperidino-9-β-D-ribofuranosylpurine 3',5'-Cyclic Phosphate]
inhibition of adenyl cyclase function (adenyl cyclase): inhibit adenyl cyclase function
anti-inflammatory activity [2]: displayed anti-inflammatory activity
inhibition of phosphodiesterase (phosphodiesterase): inhibit phosphodiesterase markedly

Structure (SMILES): CN(C)c1ncnc2c1nc(SCc1ccccc1)n2[C@@H]1O[C@@H]2COP(=O)(O)O[C@H]2[C@H]1O [Compound 24, 8-(Benzylthio)-6-dimethylamino-9-β-D-ribofuranosylpurine 3',5'-Cyclic Phosphate]
activation at 1 µg/mL [1, 4]: 4%
activation at 3.1 µg/mL [1, 4]: 9%
activation at 10 µg/mL [1, 4]: 13%
activation at 31 µg/mL [1, 4]: 18%
activation at 100 µg/mL [1, 4]: 45%
activation at 310 µg/mL [1, 4]: 118%
positive inotropic effect [1]: exhibit positive inotropic effect

Structure (SMILES): Nc1nc2c(S)ncnc2n1[C@@H]1O[C@@H]2COP(=O)(O)O[C@H]2[C@H]1O [Compound 6, 8-Amino-9-β-D-ribofuranosyl-6-thiopurine 3',5'-Cyclic Phosphate]
inhibition of phosphodiesterase (phosphodiesterase): inhibit phosphodiesterase markedly

Structure (SMILES): CCN(CC)c1ncnc2c1nc(N(CC)CC)n2[C@@H]1O[C@@H]2COP(=O)(O)O[C@H]2[C@H]1O [Compound 11, 6,8-Bis-(diethylamino)-9-β-D-ribofuranosylpurine 3',5'-Cyclic Phosphate]
inhibition of adenyl cyclase function (adenyl cyclase): inhibit adenyl cyclase function
antihypertensive properties [3]: displayed antihypertensive properties
inhibition of phosphodiesterase (phosphodiesterase): inhibit phosphodiesterase markedly

Structure (SMILES): CCCC(=O)O[C@@H]1[C@@H]2OP(=O)(O)OC[C@H]2O[C@H]1n1c(Cl)nc2c(Cl)ncnc21 [Compound 2b, 2'-O-Butyryl-6,8-dichloro-9-β-D-ribofuranosylpurine 3',5'-Cyclic Phosphate Sodium Salt]
protein kinase activation (protein kinase): superior to cyclic AMP
inhibition of adenyl cyclase function (adenyl cyclase): inhibit adenyl cyclase function

Structure (SMILES): CCN(CC)c1ncnc2c1nc(Sc1ccc(Cl)cc1)n2[C@@H]1O[C@@H]2COP(=O)(O)O[C@H]2[C@H]1O [Compound 35, 8-(p-Chlorophenylthio)-6-(diethylamino)-9-β-D-ribofuranosylpurine 3',5'-Cyclic Phosphate]
inhibition of phosphodiesterase (phosphodiesterase): inhibit phosphodiesterase markedly

Structure (SMILES): CCN(CC)c1ncnc2c1nc(Cl)n2[C@@H]1O[C@@H]2COP(=O)(O)O[C@H]2[C@H]1O [Compound 9, 8-Chloro-6-(diethylamino)-9-β-D-ribofuranosylpurine 3',5'-Cyclic Phosphate]
protein kinase activation (protein kinase): superior to cyclic AMP
inhibition of phosphodiesterase (phosphodiesterase): inhibit phosphodiesterase markedly

Structure (SMILES): CCCNc1ncnc2c1nc(SCc1ccccc1)n2[C@@H]1O[C@@H]2COP(=O)(O)O[C@H]2[C@H]1O [Compound 20, 8-(Benzylthio)-6-n-propylamino-9-β-D-ribofuranosylpurine 3',5'-Cyclic Phosphate]
activation at 310 µg/mL [1, 4]: 30%
activation at 500 µg/mL ([1]; Felis catus, 500 μg/ml, read-out: % change in Contractile Force (CF)): 50%
positive inotropic effect [1]: exhibit positive inotropic effect
